Reference: patent publication US6825233B2, “Compounds having retinoid-like activity” (Bristol-Myers Squibb Company, priority 2001, dated 2004)
Read-outs that look alike come from different tables or passages of the source.

Legend:
GAL-RARγ = target: T1, GAL-RARγ (Homo sapiens, UniProt P13631); assay: Transactivation assay, HeLa cells with GAL-RARγ and (17 mer)x5-Glob-Luc reporter; format: cell-based; conditions: stable HeLa cell line, luciferase reporter, 24 hours
T1 construct: expressed in transfected cells
T1 sequence (P13631 185-419 limits assumed): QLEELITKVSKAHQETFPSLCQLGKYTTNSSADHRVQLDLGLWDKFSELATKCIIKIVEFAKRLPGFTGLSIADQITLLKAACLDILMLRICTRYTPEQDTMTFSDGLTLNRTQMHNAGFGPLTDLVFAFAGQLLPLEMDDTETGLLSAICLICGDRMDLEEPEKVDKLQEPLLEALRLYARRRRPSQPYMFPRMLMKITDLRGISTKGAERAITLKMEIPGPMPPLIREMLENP

HT3 = assay: Growth assay, [3H]-thymidine incorporation, HT3; format: cell-based; conditions: Homo sapiens
Procedure: (§1) Principle of the assay: The proliferation of the cells was measured by the incorporation of [^3H]-Thymidine in the DNA of dividing cells.
(§2) Protocol: The number of cells which was plated has been primarily defined to avoid the cells reaching confluence before the end of the experiment duration (T47D & HT3, 750 cells/well; H3396, 200 cells/well of 96 well plates). The first day, the cells were plated in 96 well plates and incubated overnight at 37° C. (in […]; CO2, 5%), allowing the cells adhering to the support. The next day, the compounds were added to the cells and incubated for 3 or 6 days (note: for the 6-day incubation, the medium was replaced at Day3). At the end of the treatment, 10 μl of [^3H]-thymidine (final concentration of 0.4 μCi/well) were added for 4 hours at 37° C., the medium was finally removed, the cells trypsinized and harvested under vacuum on GF/B glass fiber filters. After 3 washes with distilled water, the filter were dried and counted in a scintillation counter after adding 50 μl of Microscint (Packard) to each filter. The percentage of growth inhibition was calculated by using DMSO as reference, which is the vehicle of the compounds. Growth inhibition is reported as IC50's in nM

GAL-RARα = target: T2, GAL-RARα (Homo sapiens, UniProt P10276); assay: Transactivation assay, HeLa cells with GAL-RARα and (17 mer)x5-Glob-Luc reporter; format: cell-based; conditions: stable HeLa cell line, luciferase reporter, 24 hours
T2 construct: expressed in transfected cells
T2 sequence (P10276 183-417 limits assumed): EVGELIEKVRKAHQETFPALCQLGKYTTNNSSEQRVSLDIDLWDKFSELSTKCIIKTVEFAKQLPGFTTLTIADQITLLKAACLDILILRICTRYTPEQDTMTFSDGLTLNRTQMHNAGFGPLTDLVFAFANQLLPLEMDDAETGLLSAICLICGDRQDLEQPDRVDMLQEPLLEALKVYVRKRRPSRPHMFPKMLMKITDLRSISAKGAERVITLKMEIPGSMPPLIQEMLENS

T47D = assay: Growth assay, [3H]-thymidine incorporation, T47D; format: cell-based; conditions: Homo sapiens, T47D cells, 3 or 6 days incubation, read-out: Cell Growth Inhibition (IC50, nM) T47D
Procedure: as §1, §2

RARγ = target: T3, RARγ (Homo sapiens, UniProt P13631); assay: Competition binding assay using Yttrium SPA beads, RARγ
T3 construct: made in house; host or cells: E. coli BL21 (DE3)
T3 sequence (P13631 185-419 limits assumed): T1 sequence (P13631 185-419 limits assumed)

RARα = target: T4, RARα (Homo sapiens, UniProt P10276); assay: Competition binding assay using Yttrium SPA beads, RARα
T4 construct: made in house; host or cells: E. coli BL21 (DE3)
T4 sequence (P10276 183-417 limits assumed): T2 sequence (P10276 183-417 limits assumed)

RARβ = target: T5, RARβ (Homo sapiens, UniProt P10826); assay: Competition binding assay using Yttrium SPA beads, RARβ
T5 construct: made in house; host or cells: E. coli BL21 (DE3)
T5 sequence (P10826 183-417 limits assumed): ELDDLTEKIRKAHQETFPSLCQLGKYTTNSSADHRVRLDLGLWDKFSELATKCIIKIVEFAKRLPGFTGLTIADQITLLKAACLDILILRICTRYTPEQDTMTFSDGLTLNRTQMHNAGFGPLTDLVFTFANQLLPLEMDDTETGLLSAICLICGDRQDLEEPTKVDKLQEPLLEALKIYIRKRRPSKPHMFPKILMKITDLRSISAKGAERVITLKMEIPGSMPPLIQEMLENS

GAL-RARβ = target: T6, GAL-RARβ (Homo sapiens, UniProt P10826); assay: Transactivation assay, HeLa cells with GAL-RARβ and (17 mer)x5-Glob-Luc reporter; format: cell-based; conditions: stable HeLa cell line, luciferase reporter, 24 hours
T6 construct: expressed in transfected cells
T6 sequence (P10826 183-417 limits assumed): T5 sequence (P10826 183-417 limits assumed)

[1] = HT-3, HT3 cells, [3H]-thymidine incorporation, 3 or 6 days incubation, read-out: Cell Growth Inhibition (IC50, nM) HT3

Row | Structure (SMILES) | EC50 (GAL-RARγ) | IC50 (HT3; [1]) | EC50 (GAL-RARα) | IC50 (T47D) | Kd (RARγ) | Kd (RARα) | Kd (RARβ) | EC50 (GAL-RARβ) | IC50 (HT3; HT-3, read-out: Cell Growth Inhibition (IC50, nM) HT3)
1 | CC1(C)Cc2ccc(O)cc2-c2cc(/C=C/c3ccc(C(=O)O)cc3)ccc21 [Compound 8] | 47 nM | 1160 nM | 13.5 nM | 4.8 nM | 52.8 nM | 8.3 nM | 18.6 nM | 1.76 nM | 
2 | COc1ccc2c(c1)-c1cc(/C=C/c3ccc(C(=O)O)cc3)ccc1C(C)(C)C2 [Compound 10] | 1.9 nM | < 0.01 nM | 0.02 nM | < 0.01 nM | 10.6 nM | 1.1 nM | 1.6 nM | 0.005 nM | 
3 | CC1=C(/C=C/C(C)=C/C=C/C(C)=C/C(=O)O)C(C)(C)CCC1 [Retinoic acid, reference compound] |  |  |  | 6.5 nM |  |  |  |  | 1 nM
